Legend:
[1] = tested on: Macrophage inflammatory protein-2 (MIP-2), also designated chemokine (C-X-C motif) ligand 2 (CXCL2); test: MIP-2 gene expression (microarray) in balloon-injured rat carotid artery; type: in vivo; conditions: for effect on MIP-2 gene expression (in words): 5 mg/kg of each drug s.c. 60 minutes before injury, 8 hours after injury, versus saline control; for mean MIP-2 signal intensity: male Sprague-Dawley rats, 5 mg/kg of each drug s.c. 60 minutes before carotid balloon injury, tissue taken 8 hours after injury, 3 rats per group, saline control 203
[2] = tested on: Platelet derived growth factor, alpha (PDGFa); test: PDGFa gene expression (microarray) in balloon-injured rat carotid artery; type: in vivo; conditions: for effect on PDGFa gene expression (in words): 5 mg/kg of each drug s.c. 60 minutes before injury, 8 hours after injury, versus saline control; for mean PDGFa signal intensity: male Sprague-Dawley rats, 5 mg/kg of each drug s.c. 60 minutes before carotid balloon injury, tissue taken 8 hours after injury, 3 rats per group, saline control 528
MonoMac-6 (MM6) cells = test: MonoMac-6 macrophage proliferation (WST-1 reagent); type: cell-based, human; conditions: 48 hours; for inhibitory effect on MM6 proliferation at 10 μM (in words): WST-1, n=5, data not shown; for inhibition at 100 µM: Homo sapiens, MONO-MAC-6, 100 μM final concentration of each drug, WST-1, mean value n=5, versus untreated cells
Procedure: Cells from the human macrophage cell-line MonoMac-6 (MM6) (Ziegler-Heitbrock et al, Int. J. Cancer, 41, 456 (1988)) were cultured (37° C./5% CO2) in RPMI-1640 medium supplemented with 1 mM sodium pyruvate, 1×nonessential amino acids, 1-100 μg/mL insulin, 1 mM oxalacetic acid, 100 units/mL penicillin, 100 μg/mL streptomycin and 10% (v/v) fetal bovine serum. At the start of the experiment, MM6 cells were seeded in 96-well plates at a density of 1×10^5 cells/mL (100 μl per well). Proliferation of the MM6 cells was measured using the Cell Proliferation Reagent WST-1 (Roche Diagnostics Scandinavia AB, Bromma, Sweden) or by cell counting using a microscope. The WST-1 reagent is designed to be used for spectrophotometric quantification of e.g. cell growth in proliferation assays and was used according to the manufacturers' instructions. […] Stock solutions of pemirolast (potassium salt purchased from American Custom Chemicals Corporation, San Diego, USA) and ramatroban (purchased from Cayman Chemical, Ann Arbor, Mich., USA as free acid and transferred into sodium salt by adding one equivalent of aqueous NaOH) were made in sterile saline.
The effects of pemirolast and/or ramatroban (added at the start of the experiments) on MM6 cell proliferation were studied 48 hours after start of the experiments using the WST-1 reagent described above.

SMILES	effect on MIP-2 gene expression (in words) [1]	mean MIP-2 signal intensity [1]	effect on PDGFa gene expression (in words) [2]	mean PDGFa signal intensity [2]	inhibitory effect on MM6 proliferation at 10 μM (in words) (MonoMac-6 (MM6) cells)	inhibition at 100 µM (MonoMac-6 (MM6) cells) [%]
Cc1cccn2c(=O)c(-c3nnn[nH]3)cnc12 [pemirolast]	did not reduce MIP-2 gene expression levels	710	did not reduce PDGFa gene expression levels	800	very similar to that of 100 μM of pemirolast	9.4
O=C(O)CCn1c2c(c3ccccc31)C[C@H](NS(=O)(=O)c1ccc(F)cc1)CC2 [ramatroban]	did not reduce MIP-2 gene expression levels	326	did not reduce PDGFa gene expression levels	566	less that that of 100 μM of ramatroban	16.8

Reference: patent publication US20100168137A1, “COMBINATION FOR USE IN THE TREATMENT OF INFLAMMATORY DISORDERS” (priority 2006, published 2010)
